Measured values: publication PMC10382584, “Macrocyclization of linear molecules by deep learning to facilitate macrocyclic drug candidates discovery” (Nature Communications, 2023)

Key:
Assay in all cases: biochemical
Set-up in all cases: DiscoveRx KINOMEscan competition binding, percent of DMSO control signal at 100 nM
Conditions in all cases: read-out: Fig. 4a / Percent Control / Compound 1; percent of DMSO control, competition binding
RET(M918T) = RET(M918T) (Homo sapiens, UniProt P07949, M918T)
Protocol: (§1) The kinase selectivity profile was performed by using the DiscoveRx KINOMEscan platform. […] Test compounds were prepared as 40× stocks in 100% DMSO and directly diluted into the assay. The results were defined as a percentage of signal between the negative (DMSO, 100% control) and the positive (control compound, 0% control) control, which was calculated as follows: percent control = [(test compound signal − positive control signal)/(negative control signal − positive control signal)] × 100.

ERK2 = target: T1, ERK2 (Homo sapiens, UniProt P28482)
T1 construct: gene MAPK1
Protocol: as §1

CDK9 = CDK9 (Homo sapiens, UniProt P50750)
Protocol: as §1

FER = FER (Homo sapiens, UniProt P16591)
Protocol: as §1

GRK1 = GRK1 (Homo sapiens, UniProt Q15835)
Protocol: as §1

MUSK = MUSK (Homo sapiens, UniProt O15146)
Protocol: as §1

[1] = target: T2, ABL1(Y253F)-phosphorylated (Homo sapiens, UniProt P00519, Y253F)
T2 construct: phosphorylated
Protocol: as §1

RIPK1 = RIPK1 (Homo sapiens, UniProt Q13546)
Protocol: as §1

BMPR2 = BMPR2 (Homo sapiens, UniProt Q13873)
Protocol: as §1

NEK5 = NEK5 (Homo sapiens, UniProt Q6P3R8)
Protocol: as §1

ABL1-phosphorylated = target: T3, ABL1-phosphorylated (Homo sapiens, UniProt P00519)
T3 construct: phosphorylated
Protocol: as §1

MEK1 = target: T4, MEK1 (Homo sapiens, UniProt Q02750)
T4 construct: gene MAP2K1
Protocol: as §1

SNARK = target: T5, SNARK (Homo sapiens, UniProt Q9H093)
T5 construct: gene NUAK2
Protocol: as §1

MYLK = MYLK (Homo sapiens, UniProt Q15746)
Protocol: as §1

[2] = target: EGFR(L747-S752del, P753S) (Homo sapiens, UniProt P00533, DEL747-752/P753S)
Protocol: as §1

MEK2 = target: T6, MEK2 (Homo sapiens, UniProt P36507)
T6 construct: gene MAP2K2
Protocol: as §1

CDKL1 = CDKL1 (Homo sapiens, UniProt Q00532)
Protocol: as §1

PKN2 = PKN2 (Homo sapiens, UniProt Q16513)
Protocol: as §1

MRCKB = target: T7, MRCKB (Homo sapiens, UniProt Q9Y5S2)
T7 construct: gene CDC42BPB
Protocol: as §1

[3] = target: T8, RPS6KA4(Kin.Dom.2-C-terminal) (Homo sapiens, UniProt O75676)
T8 construct: Kin.Dom.2-C-terminal
Protocol: as §1

EPHA4 = EPHA4 (Homo sapiens, UniProt P54764)
Protocol: as §1

PLK1 = PLK1 (Homo sapiens, UniProt P53350)
Protocol: as §1

CDK7 = CDK7 (Homo sapiens, UniProt P50613)
Protocol: as §1

ERK1 = target: T9, ERK1 (Homo sapiens, UniProt P27361)
T9 construct: gene MAPK3
Protocol: as §1

MYLK4 = MYLK4 (Homo sapiens, UniProt Q86YV6)
Protocol: as §1
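Further: KINOMEscan kinase panel binding assay, signal normalized between DMSO as 100% and a positive control compound as 0%.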

T6 sequence (P36507 whole entry): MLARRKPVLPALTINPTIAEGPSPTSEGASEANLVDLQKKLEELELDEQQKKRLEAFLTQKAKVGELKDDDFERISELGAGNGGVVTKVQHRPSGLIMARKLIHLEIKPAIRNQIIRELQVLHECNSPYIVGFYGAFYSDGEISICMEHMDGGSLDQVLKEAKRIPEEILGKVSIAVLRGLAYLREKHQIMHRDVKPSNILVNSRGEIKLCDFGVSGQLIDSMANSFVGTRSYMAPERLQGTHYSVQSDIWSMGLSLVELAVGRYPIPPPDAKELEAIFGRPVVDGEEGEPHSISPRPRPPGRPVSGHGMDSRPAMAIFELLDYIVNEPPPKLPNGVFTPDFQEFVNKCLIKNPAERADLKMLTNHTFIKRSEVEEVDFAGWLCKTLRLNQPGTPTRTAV
Sequence of FER (P16591 whole entry): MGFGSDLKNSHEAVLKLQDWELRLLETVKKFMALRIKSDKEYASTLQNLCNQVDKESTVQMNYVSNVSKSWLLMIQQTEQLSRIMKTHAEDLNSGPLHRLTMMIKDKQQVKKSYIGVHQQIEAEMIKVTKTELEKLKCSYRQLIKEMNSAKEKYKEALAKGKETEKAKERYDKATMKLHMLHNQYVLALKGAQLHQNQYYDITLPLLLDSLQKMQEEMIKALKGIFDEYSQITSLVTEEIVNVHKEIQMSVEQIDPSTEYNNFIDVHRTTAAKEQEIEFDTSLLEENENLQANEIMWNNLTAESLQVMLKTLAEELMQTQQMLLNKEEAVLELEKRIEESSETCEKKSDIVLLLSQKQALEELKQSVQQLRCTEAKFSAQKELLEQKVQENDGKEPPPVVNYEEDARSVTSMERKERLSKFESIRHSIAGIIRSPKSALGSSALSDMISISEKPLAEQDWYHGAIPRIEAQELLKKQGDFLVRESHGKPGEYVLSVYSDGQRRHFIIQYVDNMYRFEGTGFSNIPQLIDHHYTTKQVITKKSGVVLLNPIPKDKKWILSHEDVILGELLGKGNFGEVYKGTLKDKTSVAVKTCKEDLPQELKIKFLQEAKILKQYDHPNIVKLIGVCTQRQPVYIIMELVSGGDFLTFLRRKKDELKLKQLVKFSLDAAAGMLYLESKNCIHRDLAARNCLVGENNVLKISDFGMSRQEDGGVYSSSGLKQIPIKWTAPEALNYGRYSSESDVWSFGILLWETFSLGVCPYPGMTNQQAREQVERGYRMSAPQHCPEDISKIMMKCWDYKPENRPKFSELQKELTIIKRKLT
Sequence of PLK1 (P53350 whole entry): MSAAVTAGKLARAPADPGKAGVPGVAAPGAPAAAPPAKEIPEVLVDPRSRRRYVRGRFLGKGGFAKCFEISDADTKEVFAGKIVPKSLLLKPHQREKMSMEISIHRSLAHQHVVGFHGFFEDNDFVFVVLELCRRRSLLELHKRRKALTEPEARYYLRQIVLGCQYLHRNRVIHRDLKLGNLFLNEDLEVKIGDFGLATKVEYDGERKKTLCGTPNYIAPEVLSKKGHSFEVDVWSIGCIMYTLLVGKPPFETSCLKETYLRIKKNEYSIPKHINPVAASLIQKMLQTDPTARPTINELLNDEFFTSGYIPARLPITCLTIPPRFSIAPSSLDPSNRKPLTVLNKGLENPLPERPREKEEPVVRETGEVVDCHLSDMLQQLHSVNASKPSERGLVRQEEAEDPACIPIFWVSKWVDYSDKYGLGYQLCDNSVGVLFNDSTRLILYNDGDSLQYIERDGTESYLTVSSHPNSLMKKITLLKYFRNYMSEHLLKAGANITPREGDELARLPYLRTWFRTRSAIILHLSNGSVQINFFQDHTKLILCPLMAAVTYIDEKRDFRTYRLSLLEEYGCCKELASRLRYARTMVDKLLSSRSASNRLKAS
T4 sequence (Q02750 whole entry): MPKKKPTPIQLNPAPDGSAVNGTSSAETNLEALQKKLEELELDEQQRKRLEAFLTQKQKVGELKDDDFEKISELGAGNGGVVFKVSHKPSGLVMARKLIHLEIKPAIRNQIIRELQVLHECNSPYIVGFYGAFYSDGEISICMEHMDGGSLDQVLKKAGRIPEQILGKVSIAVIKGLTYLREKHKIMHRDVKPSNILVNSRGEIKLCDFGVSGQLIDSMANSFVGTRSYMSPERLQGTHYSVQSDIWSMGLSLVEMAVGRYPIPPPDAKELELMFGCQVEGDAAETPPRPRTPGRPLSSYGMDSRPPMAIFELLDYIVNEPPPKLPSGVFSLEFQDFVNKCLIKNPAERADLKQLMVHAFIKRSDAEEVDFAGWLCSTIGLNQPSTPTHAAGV
Sequence of CDK9 (P50750 whole entry): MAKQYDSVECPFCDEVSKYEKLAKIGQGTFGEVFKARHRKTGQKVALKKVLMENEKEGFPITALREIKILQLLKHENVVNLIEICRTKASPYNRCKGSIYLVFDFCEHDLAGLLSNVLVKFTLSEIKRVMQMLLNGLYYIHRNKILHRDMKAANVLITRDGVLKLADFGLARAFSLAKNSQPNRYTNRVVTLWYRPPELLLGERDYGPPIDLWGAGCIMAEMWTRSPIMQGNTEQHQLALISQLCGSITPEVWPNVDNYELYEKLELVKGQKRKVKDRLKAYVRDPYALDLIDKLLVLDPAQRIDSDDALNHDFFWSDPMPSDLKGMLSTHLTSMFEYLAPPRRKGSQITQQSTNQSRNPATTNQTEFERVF
Sequence of GRK1 (Q15835 whole entry): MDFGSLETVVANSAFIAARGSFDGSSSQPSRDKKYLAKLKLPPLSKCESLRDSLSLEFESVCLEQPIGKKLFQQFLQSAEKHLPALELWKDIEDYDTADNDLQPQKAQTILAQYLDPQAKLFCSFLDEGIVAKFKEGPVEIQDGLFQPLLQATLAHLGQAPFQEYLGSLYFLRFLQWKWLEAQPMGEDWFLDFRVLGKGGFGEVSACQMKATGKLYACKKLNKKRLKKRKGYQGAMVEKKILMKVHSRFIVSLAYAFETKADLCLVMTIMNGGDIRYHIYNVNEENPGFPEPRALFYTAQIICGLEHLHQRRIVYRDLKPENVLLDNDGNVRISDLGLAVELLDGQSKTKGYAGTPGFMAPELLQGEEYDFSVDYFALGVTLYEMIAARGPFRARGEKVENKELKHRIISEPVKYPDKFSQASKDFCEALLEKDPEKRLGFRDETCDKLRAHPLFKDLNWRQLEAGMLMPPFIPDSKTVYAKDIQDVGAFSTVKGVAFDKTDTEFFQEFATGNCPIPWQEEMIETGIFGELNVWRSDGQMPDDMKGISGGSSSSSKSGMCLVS
Sequence of RIPK1 (Q13546 whole entry): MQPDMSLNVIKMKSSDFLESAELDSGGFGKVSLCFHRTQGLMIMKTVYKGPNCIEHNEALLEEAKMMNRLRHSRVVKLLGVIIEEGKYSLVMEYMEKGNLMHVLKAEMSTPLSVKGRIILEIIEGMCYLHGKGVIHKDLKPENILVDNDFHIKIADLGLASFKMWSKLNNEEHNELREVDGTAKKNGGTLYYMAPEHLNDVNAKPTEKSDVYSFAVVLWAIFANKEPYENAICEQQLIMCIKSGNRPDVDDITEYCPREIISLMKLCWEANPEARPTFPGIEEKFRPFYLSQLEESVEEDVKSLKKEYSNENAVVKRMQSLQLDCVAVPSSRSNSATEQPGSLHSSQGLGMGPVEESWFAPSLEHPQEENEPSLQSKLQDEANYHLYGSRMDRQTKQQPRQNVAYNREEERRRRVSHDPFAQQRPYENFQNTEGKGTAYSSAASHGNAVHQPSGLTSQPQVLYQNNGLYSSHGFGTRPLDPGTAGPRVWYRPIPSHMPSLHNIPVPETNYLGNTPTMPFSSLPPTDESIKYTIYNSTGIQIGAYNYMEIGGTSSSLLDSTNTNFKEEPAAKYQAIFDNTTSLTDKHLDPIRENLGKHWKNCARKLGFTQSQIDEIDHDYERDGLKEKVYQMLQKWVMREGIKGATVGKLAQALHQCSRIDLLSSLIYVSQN
Sequence of PKN2 (Q16513 whole entry): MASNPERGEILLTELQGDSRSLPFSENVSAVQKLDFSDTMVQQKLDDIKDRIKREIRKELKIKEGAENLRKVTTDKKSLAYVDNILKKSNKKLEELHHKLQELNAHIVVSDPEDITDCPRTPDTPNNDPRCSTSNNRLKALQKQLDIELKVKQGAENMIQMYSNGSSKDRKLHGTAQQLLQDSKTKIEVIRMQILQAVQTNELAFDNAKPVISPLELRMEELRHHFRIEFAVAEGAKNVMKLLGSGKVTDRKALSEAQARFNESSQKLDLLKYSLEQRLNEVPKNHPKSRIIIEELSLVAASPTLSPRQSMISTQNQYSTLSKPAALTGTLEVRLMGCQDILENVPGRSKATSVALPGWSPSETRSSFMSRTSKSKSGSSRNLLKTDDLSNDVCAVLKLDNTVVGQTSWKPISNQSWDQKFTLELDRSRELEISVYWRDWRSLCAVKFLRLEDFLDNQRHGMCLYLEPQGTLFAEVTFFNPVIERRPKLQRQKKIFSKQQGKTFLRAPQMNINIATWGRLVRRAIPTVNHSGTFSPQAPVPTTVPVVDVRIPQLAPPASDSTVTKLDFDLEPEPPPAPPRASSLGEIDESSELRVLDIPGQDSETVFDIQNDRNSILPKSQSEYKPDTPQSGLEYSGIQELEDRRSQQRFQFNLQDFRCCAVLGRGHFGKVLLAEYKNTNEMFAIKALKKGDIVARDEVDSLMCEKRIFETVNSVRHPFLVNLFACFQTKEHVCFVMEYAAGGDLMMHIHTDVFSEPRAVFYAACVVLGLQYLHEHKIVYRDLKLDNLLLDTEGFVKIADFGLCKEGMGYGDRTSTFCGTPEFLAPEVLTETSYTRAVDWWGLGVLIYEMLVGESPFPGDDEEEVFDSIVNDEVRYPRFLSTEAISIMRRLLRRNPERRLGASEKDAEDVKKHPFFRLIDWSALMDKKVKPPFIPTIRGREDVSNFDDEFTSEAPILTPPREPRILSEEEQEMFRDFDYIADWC

In the case of `Cc1cnc2nc1Nc1cccc(c1)COCc1cc(ccc1OCCN1CCCC1)N2` [Compound 1], the remaining binding at 0.1 µM (RET(M918T)) is reported as 96%, the remaining binding at 0.1 µM (ERK2) is reported as 100% and the remaining binding at 0.1 µM (CDK9) is reported as 99%. It also gave a remaining binding at 0.1 µM (FER) of 87%, a remaining binding at 0.1 µM (GRK1) of 77% and a remaining binding at 0.1 µM (MUSK) of 90%. It also gave a remaining binding at 0.1 µM [1] of 64%, a remaining binding at 0.1 µM (RIPK1) of 93% and a remaining binding at 0.1 µM (BMPR2) of 87%. It also gave a remaining binding at 0.1 µM (NEK5) of 93%, a remaining binding at 0.1 µM (ABL1-phosphorylated) of 90% and a remaining binding at 0.1 µM (MEK1) of 77%. It also gave a remaining binding at 0.1 µM (SNARK) of 36%, a remaining binding at 0.1 µM (MYLK) of 93% and a remaining binding at 0.1 µM [2] of 80%. The remaining binding at 0.1 µM (MEK2) was 72%, the remaining binding at 0.1 µM (CDKL1) was 86% and the remaining binding at 0.1 µM (PKN2) was 100%. The remaining binding at 0.1 µM (MRCKB) was 96%, the remaining binding at 0.1 µM [3] was 75% and the remaining binding at 0.1 µM (EPHA4) was 100%. It also gave a remaining binding at 0.1 µM (PLK1) of 94%, a remaining binding at 0.1 µM (CDK7) of 77% and a remaining binding at 0.1 µM (ERK1) of 100%. It also gave a remaining binding at 0.1 µM (MYLK4) of 84%.
